Assay results from patent US4401660A, “Ester derivatives of 5-O-mycaminosyl tylonolide and method of using same” (Eli Lilly and Company, priority 1981, dated 1983).

Assays:
Pasteurella multocida = assay: Treatment of Pasteurella infections in chicks (Table V); assay type: in vivo, one-day-old chicks; conditions: 30 mg/kg by subcutaneous injection one and four hours post challenge; for mortality at 30 mg/kg: Pasteurella multocida, sc, 4 h, read-out: Deaths in Treated Chicks/Number Treated (converted)
How it was run: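 One-day-old chicks challenged subcutaneously with avian P. multocida (0.1 ml of 10^-3 dilution of 20-hour tryptose broth culture). Esters given at 30 mg/kg subcutaneously at 1 and 4 hours post challenge. Untreated infected controls, ten per group.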

[1] = test system: Haemophilus influenzae R252; assay: MIC, standard agar-dilution assay (Table II); assay type: cell-based; design: unit not given here; conditions: Haemophilus influenzae R252, ampicillin-resistant strain
Procedure: (§1) The MIC's in Table II were determined by standard agar-dilution assays. The MIC's in Table III were obtained using a conventional broth-dilution microtiter test.

[2] = test system: Staphylococcus aureus S13E; assay: MIC, standard agar-dilution assay (Table II); assay type: cell-based; design: unit not given here
Procedure: as §1

[3] = test system: Staphylococcus aureus X1.1; assay: MIC, standard agar-dilution assay (Table II); assay type: cell-based; design: unit not given here
Procedure: as §1

[4] = test system: Staphylococcus epidermidis EPI2; assay: MIC, standard agar-dilution assay (Table II); assay type: cell-based; design: unit not given here
Procedure: as §1

[5] = test system: Streptococcus Group D X66; assay: MIC, standard agar-dilution assay (Table II); assay type: cell-based; design: unit not given here
Procedure: as §1

[6] = test system: Haemophilus influenzae Holt; assay: MIC, standard agar-dilution assay (Table II); assay type: cell-based; design: unit not given here; conditions: ampicillin-sensitive strain
Procedure: as §1

[7] = test system: Staphylococcus epidermidis EPI1; assay: MIC, standard agar-dilution assay (Table II); assay type: cell-based; design: unit not given here
Procedure: as §1

[8] = test system: Staphylococcus aureus V41; assay: MIC, standard agar-dilution assay (Table II); assay type: cell-based; design: unit not given here; conditions: Staphylococcus aureus V41, penicillin-resistant strain
Procedure: as §1

[9] = test system: Staphylococcus aureus X400; assay: MIC, standard agar-dilution assay (Table II); assay type: cell-based; design: unit not given here; conditions: Staphylococcus aureus X400, methicillin-resistant strain
Procedure: as §1

[10] = test system: Streptococcus pyogenes C203; assay: MIC, standard agar-dilution assay (Table II); assay type: cell-based; design: unit not given here
Procedure: as §1

[11] = test system: Streptococcus Group D 9960; assay: MIC, standard agar-dilution assay (Table II); assay type: cell-based; design: unit not given here
Procedure: as §1

[12] = test system: Streptococcus pneumoniae Park I; assay: MIC, standard agar-dilution assay (Table II); assay type: cell-based; design: unit not given here
Procedure: as §1

Mycoplasma hyorhinis = assay: MIC, broth-dilution microtiter test (Table III); assay type: cell-based; design: unit not given here
Procedure: as §1

[13] = test system: Pasteurella multocida 60A; assay: MIC, broth-dilution microtiter test (Table III); assay type: cell-based; design: unit not given here; conditions: avian isolate
Procedure: as §1

[14] = test system: Pasteurella multocida 17E; assay: MIC, broth-dilution microtiter test (Table III); assay type: cell-based; design: unit not given here; conditions: bovine isolate
Procedure: as §1

[15] = test system: Pasteurella multocida 40G; assay: MIC, broth-dilution microtiter test (Table III); assay type: cell-based; design: unit not given here
Procedure: as §1

Staphylococcus aureus = assay: MIC, broth-dilution microtiter test (Table III); assay type: cell-based; design: unit not given here
Procedure: as §1

Mycoplasma gallisepticum = assay: MIC, broth-dilution microtiter test (Table III); assay type: cell-based; design: unit not given here
Procedure: as §1

[16] = test system: Pasteurella haemolytica 23C; assay: MIC, broth-dilution microtiter test (Table III); assay type: cell-based; design: unit not given here
Procedure: as §1

[17] = test system: Pasteurella haemolytica 22C; assay: MIC, broth-dilution microtiter test (Table III); assay type: cell-based; design: unit not given here
Procedure: as §1

[18] = test system: Pasteurella multocida 22A; assay: MIC, broth-dilution microtiter test (Table III); assay type: cell-based; design: unit not given here
Procedure: as §1

Streptococcus sp. 80 = assay: MIC, broth-dilution microtiter test (Table III); assay type: cell-based; design: unit not given here
Procedure: as §1

[19] = test system: Pasteurella multocida 68C; assay: MIC, broth-dilution microtiter test (Table III); assay type: cell-based; design: unit not given here
Procedure: as §1

[20] = test system: Pasteurella haemolytica 41D; assay: MIC, broth-dilution microtiter test (Table III); assay type: cell-based; design: unit not given here
Procedure: as §1

Mycoplasma synoviae = assay: MIC, broth-dilution microtiter test (Table III); assay type: cell-based; design: unit not given here
Procedure: as §1

| SMILES | minimal inhibitory concentration (MIC) [2] | minimal inhibitory concentration (MIC) [3] | minimal inhibitory concentration (MIC) [4] | minimal inhibitory concentration (MIC) [5] | minimal inhibitory concentration (MIC) [7] | minimal inhibitory concentration (MIC) [8] | minimal inhibitory concentration (MIC) [9] | minimal inhibitory concentration (MIC) [10] | minimal inhibitory concentration (MIC) [11] | minimal inhibitory concentration (MIC) [12] | minimal inhibitory concentration (MIC) (Mycoplasma hyorhinis) | minimal inhibitory concentration (MIC) [13] | minimal inhibitory concentration (MIC) [14] | minimal inhibitory concentration (MIC) [15] | minimal inhibitory concentration (MIC) (Staphylococcus aureus) | minimal inhibitory concentration (MIC) (Mycoplasma gallisepticum) | minimal inhibitory concentration (MIC) [16] | minimal inhibitory concentration (MIC) [17] | minimal inhibitory concentration (MIC) [18] | minimal inhibitory concentration (MIC) (Streptococcus sp. 80) | also measured |
| --- | --- | --- | --- | --- | --- | --- | --- | --- | --- | --- | --- | --- | --- | --- | --- | --- | --- | --- | --- | --- | --- |
| CCC1OC(=O)CC(O)C(C)C(OC2OC(C)C(OC(C)=O)C(N(C)C)C2OC(C)=O)C(CC=O)CC(C)C(=O)C=CC(C)=CC1COC(=O)COc1ccccc1 (stereo not shown) [Compound 34, 2',4'-Di-O-acetyl-23-O-phenoxyacetyl-OMT] | 0.25 | 0.25 | 0.5 | 0.25 | 0.25 | 0.25 | 0.25 | 0.06 | 0.25 | 0.015 | 3.12 | 1.56 | 1.56 | 1.56 | 0.097 | < 0.05 | 3.12 | 3.12 | 3.12 | < 0.05 | mortality at 30 mg/kg (Pasteurella multocida): 90%; minimal inhibitory concentration (MIC) [1]: 1; minimal inhibitory concentration (MIC) [6]: 1; minimal inhibitory concentration (MIC) [19]: 1.56; minimal inhibitory concentration (MIC) [20]: 3.12 |
| CCC1OC(=O)CC(O)C(C)C(OC2OC(C)C(O)C(N(C)C)C2OC(C)=O)C(CC=O)CC(C)C(=O)C=CC(C)=CC1COC(=O)CCc1ccccc1 (stereo not shown) [Compound 30] | 0.25 | 0.125 | 0.25 | 0.125 | 0.25 | 0.25 | 0.25 | 0.06 | 0.125 | 0.015 | 0.195 | 1.56 | 1.56 | 0.78 | 0.195 | < 0.05 | 3.12 | 3.12 | 1.56 | < 0.05 | Deaths in Treated Chicks/Number Treated (Pasteurella multocida): 6/10; minimal inhibitory concentration (MIC) [1]: 0.5; minimal inhibitory concentration (MIC) [6]: 0.5; minimal inhibitory concentration (MIC) [19]: 0.78; minimal inhibitory concentration (MIC) [20]: 3.12 |
| CCC1OC(=O)CC(O)C(C)C(OC2OC(C)C(O)C(N(C)C)C2O)C(CC=O)CC(C)C(=O)C=CC(C)=CC1COC(=O)CCc1ccccc1 (stereo not shown) [Compound 54] | 0.125 | 0.125 | 0.25 | 0.125 | 0.125 | 0.25 | 0.25 | 0.06 | 0.125 | 0.015 | 0.78 | 1.56 | 0.78 | 3.12 | 0.195 | 0.097 | 3.12 | 3.12 | 6.25 | 0.195 | Deaths in Treated Chicks/Number Treated (Pasteurella multocida): 0/10; minimal inhibitory concentration (MIC) [1]: 0.25; minimal inhibitory concentration (MIC) [6]: 0.25; minimal inhibitory concentration (MIC) [19]: 0.78; minimal inhibitory concentration (MIC) [20]: 3.12 |
| CCC1OC(=O)CC(O)C(C)C(OC2OC(C)C(OC(C)=O)C(N(C)C)C2OC(C)=O)C(CC=O)CC(C)C(=O)C=CC(C)=CC1COS(=O)(=O)c1ccc(NC(C)=O)cc1 (stereo not shown) [Compound 47, 23-O-(p-Acetamidobenzenesulfonyl)-2',4'-di-O-acetyl-OMT] | 1 | 1 | 2 | 1 | 1 | 2 | 2 | 0.125 | 1 | 0.125 | 12.5 | 3.12 | 6.25 | 12.5 | 0.78 | 0.195 | 12.5 | 12.5 | 12.5 | < 0.05 | mortality at 30 mg/kg (Pasteurella multocida): 90%; minimal inhibitory concentration (MIC) (Mycoplasma synoviae): 1.56; minimal inhibitory concentration (MIC) [19]: 3.12; minimal inhibitory concentration (MIC) [20]: 12.5 |
| CCC1OC(=O)CC(O)C(C)C(OC2OC(C)C(OC(C)=O)C(N(C)C)C2OC(C)=O)C(CC=O)CC(C)C(=O)C=CC(C)=CC1COC(=O)[C@H](NC(=O)OC(C)(C)C)c1ccccc1 (stereo partly shown) [Compound 39, 2',4'-Di-O-acetyl-23-O-(N-t-BOC-phenylglycyl)-OMT] | 0.5 | 0.5 | 1 | 0.5 | 0.5 | 1 | 1 | 0.125 | 0.5 | 0.03 | 1.56 | 12.5 | 6.25 | 6.25 | 1.56 | < 0.05 | 12.5 | 12.5 | 25 | 0.195 | mortality at 30 mg/kg (Pasteurella multocida): 100%; minimal inhibitory concentration (MIC) [1]: 2; minimal inhibitory concentration (MIC) [6]: 2; minimal inhibitory concentration (MIC) [19]: 12.5; minimal inhibitory concentration (MIC) [20]: 12.5 |
